Source: patent US4332802A, “11-Oxo-11H-pyrido[2,1-b]quinazoline-2-carboxylic acid and salts thereof, antiallergic compositions containing it and methods of suppressing allergic reactions with it” (Boehringer Ingelheim KG, priority 1975, dated 1982)
Like-named read-outs stand apart in the source and are kept apart here.

Key:
[1] = tested on: anaphylactoid dextran reaction in the rat paw; assay: Dextran edema test (anaphylactoid dextran reaction, paw swelling); assay type: in vivo; conditions: for ED35: 0.5 h, rat, graphic extrapolation; for % Inhibition of swelling: rat paw, dextran, dose of 100 mgm/kg (p.o.)
Source text: The antiallergic activity of the compounds of the present invention was ascertained and compared to that of structurally related known compounds by the anaphylactic dextran reaction method, where
Dextran induces in the rat a de-granulation of mast cells and thus the release of mediator substances such as histamine and serotonin, with consequent edema formation. The reaction manifests itself in a manner similar to anaphylaxis [see Morrison et al., J.exp.Med. 103, 399 (1956)].
Fasted male laboratory rats (Chbb:Thom.SPF) having a body weight of 120-180 gm were used as the test animals; they were initially kept in wire cages, and after provocation of the reaction on chaff. The allergic reaction was released by subplantar injection into the right hind paw of 100 μgm of dextran (mol. wt. 60,000) in 0.1 ml of physiological sodium chloride solution. The degree of inflammatory swelling was determined by dorso-plantar measurement of the thickness of the paw [see Doepfner et al., Int. Arch. Allergy 12, 89 (1958)] in 1/100 mm; swelling was defined as the difference between the paw thickness 30 minutes after the dextran injection and the paw thickness before the dextran injection. For the dextran injection and the paw thickness measurements the animal was placed under light general anesthesia with ether (etherrausch).
The test compound was administered shortly before release of the allergic reaction in sodium chloride solution i.v. (0.5 ml/100 gm body weight), or 10 minutes before in 1% tylose 2000 p.o. (1 ml/100 gm body weight). Control animals received only the vehicle.
From the raw data thus obtained the percentage of swelling inhibition was calculated from the average paw swelling in the treated animals (T) and in the control animals (K) in accordance with the formula [formula] By graphic extrapolation the dose of test compound was determined which produced a 35% reduction of the swelling (ED35). For graphic representation of percentage inhibition values the standard error (sx --) was determined according to Fenner, Naturwissenschaften 19, 310 (1931).
For the anaphylactoid dextran reaction in the rat paw the following values were obtained at a dose of 100 mgm/kg: […]

[2] = Absorption: quotient ED35 p.o./ED35 i.v. from the dextran edema test; conditions: in vivo; rat; the smaller the quotient, the better the absorption
Source text: For the efficacy of a pharmaceutical which is to be administered perorally, the absorption is of particular advantage. Conclusions regarding the absorption can be drawn from a comparison of the ED35 --values p.o. and i.v.; the smaller the quotient ED35 p.o./ED35 i.v., the better the absorption.

[3] = iv, i.v., shortly before dextran, sodium chloride solution, read-out: ED35 i.v. (dose producing 35% reduction of the swelling)
[4] = po, p.o., 10 minutes before dextran, 1% tylose, read-out: ED35 p.o. (dose producing 35% reduction of the swelling)

SMILES | ED35 [1, 3] [mg/kg] | ED35 [1, 4] [mg/kg] | ED35 p.o./i.v. ratio (absorption) [2] | % Inhibition of swelling [1] [%]
O=C(O)c1ccc2nc3ccccc3c(=O)n2c1 [E, 11-Oxo-11H-pyrido[2,1-b]-quinazoline-8-carboxylic acid] | 1.1 | 4.4 | 4 | 
O=C(O)c1ccc2nc3ccccn3c(=O)c2c1 [A, 11-Oxo-11H-pyrido[2,1-b]quinazoline-2-carboxylic acid] | 2.1 | 4 | 1.9 | 
O=C(O)c1ccn2c(=O)c3ccccc3nc2c1 [D, 11-Oxo-11H-pyrido[2,1-b]quinazoline-7-carboxylic acid] |  |  |  | 38
O=C(O)c1cccc2c(=O)n3ccccc3nc12 [C, 11-Oxo-11H-pyrido[2,1-b]quinazoline-4-carboxylic acid] |  |  |  | 10
O=C(O)c1cccc2nc3ccccn3c(=O)c12 [B, 11-Oxo-11H-pyrido[2,1-b]quinazoline-1-carboxylic acid] |  |  |  | 0
